The target of assay [1] is T1, Phosphodiesterase 4 (Homo sapiens) (UniProt P27815+Q08499+Q07343+Q08493). The assay is described as follows: Inhibition of guinea pig Phosphodiesterase 4 at 10 uM. It is filed as protein assay. Particulars: Cavia porcellus, target entry is the homologue from another species.
In assay [2] the target is T2, Phosphodiesterase 7 (Homo sapiens, UniProt Q13946+Q9NP56). Description: Inhibition of human Phosphodiesterase 7 of HUT-78 cells at 10 uM. It is filed as cell-based.
The target in assay [3] is T3, Phosphodiesterase 3 (Homo sapiens) (UniProt Q14432+Q13370). The assay is described as follows: Inhibition of guinea pig Phosphodiesterase 3 at 10 uM. The assay is classed as protein assay. Conditions: Cavia porcellus, target entry is the homologue from another species.
Assay [4] deals with T2, Phosphodiesterase 7. Description: Inhibition of human Phosphodiesterase 7 of HUT-78 cells. It is filed as cell-based.
Assay [5] addresses T1, Phosphodiesterase 4 (Homo sapiens). Description: Inhibition of guinea pig Phosphodiesterase 4 at 10 uM (inactive). Particulars: Cavia porcellus, target entry is the homologue from another species. It is filed as protein assay.
Assay [6] deals with T2, Phosphodiesterase 7. The assay is described as follows: Inhibition of human Phosphodiesterase 7 of HUT-78 cells at 10 uM (inactive). It is filed as cell-based.
Assay [7] addresses T3, Phosphodiesterase 3 (Homo sapiens). Description: Inhibition of guinea pig Phosphodiesterase 3 (PDE3) at 10 uM. It is filed as protein assay. Conditions: Cavia porcellus, target entry is the homologue from another species.

Activity calls are given as the source filed them.

For orientation: inhibition means the percentage by which the read-out fell short of the control. A word on the IC50: it is the concentration at which inhibition is half-maximal. Higher therefore signals weaker potency.

T2 sequence (Q13946 whole entry, looked up): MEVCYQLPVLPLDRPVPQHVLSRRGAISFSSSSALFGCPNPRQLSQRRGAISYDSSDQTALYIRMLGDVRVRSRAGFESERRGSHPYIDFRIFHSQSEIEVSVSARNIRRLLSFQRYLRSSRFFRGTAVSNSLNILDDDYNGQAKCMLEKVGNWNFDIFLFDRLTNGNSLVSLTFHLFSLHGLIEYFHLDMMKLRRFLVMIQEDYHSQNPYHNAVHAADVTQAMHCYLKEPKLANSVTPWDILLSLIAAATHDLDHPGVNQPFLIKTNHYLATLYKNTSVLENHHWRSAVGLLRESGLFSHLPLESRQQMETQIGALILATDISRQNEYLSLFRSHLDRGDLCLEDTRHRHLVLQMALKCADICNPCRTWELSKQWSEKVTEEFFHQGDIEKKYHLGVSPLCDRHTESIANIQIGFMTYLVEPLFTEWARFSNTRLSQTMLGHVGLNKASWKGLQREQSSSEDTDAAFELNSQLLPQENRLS
T2 sequence (Q9NP56 whole entry, looked up): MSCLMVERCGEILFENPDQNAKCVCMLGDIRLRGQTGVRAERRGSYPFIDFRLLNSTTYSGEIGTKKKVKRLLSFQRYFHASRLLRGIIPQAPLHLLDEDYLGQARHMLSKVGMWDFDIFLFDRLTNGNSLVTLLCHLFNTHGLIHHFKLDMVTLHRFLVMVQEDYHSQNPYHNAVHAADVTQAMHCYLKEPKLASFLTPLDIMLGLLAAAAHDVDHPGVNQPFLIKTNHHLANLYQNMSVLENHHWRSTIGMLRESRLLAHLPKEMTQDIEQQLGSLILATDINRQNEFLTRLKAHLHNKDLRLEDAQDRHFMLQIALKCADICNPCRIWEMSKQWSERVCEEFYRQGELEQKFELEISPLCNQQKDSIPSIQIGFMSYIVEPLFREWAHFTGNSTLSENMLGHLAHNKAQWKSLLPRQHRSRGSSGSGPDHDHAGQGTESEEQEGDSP

As for `Nc1nc(O)c2nc(Br)n(C3CCCCc4ccc(F)cc43)c2n1` (centres undefined), the inhibition in assay [1] is 13%; at Phosphodiesterase 7 [2], 10%.

Turning to `Nc1nc(O)c2ncn(C3CCCc4ccccc43)c2n1` (centres undefined), the inhibition worked out at 7% in assay [1] and 4% against Phosphodiesterase 7 [2].

Take `Nc1nc(O)c2nc(Br)n(C3CCCc4ccc([N+](=O)[O-])cc43)c2n1` (centres undefined): the inhibition in assay [1] was found to be 42%; in assay [3], 19%. At Phosphodiesterase 7 [4], this compound displayed a 50% inhibitory concentration (IC50) of 2.31 µM.

Turning to `Nc1nc(O)c2nc(Br)n(C3CCCc4cccc(Br)c43)c2n1` (centres undefined), the inhibition was 10% in assay [1] and 14% in assay [3]. The IC50 against Phosphodiesterase 7 [4] came to 1.31 µM.

On to `COc1ccc2c(c1)C(n1c(Br)nc3c(O)nc(N)nc31)CCC2` (centres undefined), for which the inhibition in assay [1] was 20%. Also, the IC50 against Phosphodiesterase 7 [4] came out at 4.22 µM.

Take `Oc1ncnc2c1ncn2C1CCCc2ccccc21` (centres undefined): the inhibition entry (in assay [5]; on Phosphodiesterase 7 [6]) was “inactive” throughout.

Regarding `Nc1nc(O)c2nc(Br)n(C3CCc4ccccc43)c2n1` (centres undefined), the figures for the inhibition (in assay [1]; at Phosphodiesterase 7 [2]) were 27% and 22%, respectively.

Consider `Nc1nc(O)c2nc(Br)n(C3CCCc4ccccc43)c2n1` (centres undefined), for which the inhibition came out at 15% in assay [1] and 30% in assay [7]. The IC50 against Phosphodiesterase 7 [4] turned out to be 4.88 µM.
